Several values for one entry are separate records, joined by “and”; a condition that tells them apart may be missing. Equal values may be shown once.
How the values were obtained:
[1] = molecular target: T1, NaV1.7 (Homo sapiens, UniProt Q15858); assay: Automated patch clamp (Qube 384), external block of NaV1.7 in HEK293 cells; assay type: cell-based; conditions: compound in external solution, read-out: Nav1.7 Extracellular Inhibition (IC50)
T1 construct: expressed in transfected cells; tetracycline-inducible, kept under hygromycin and blasticidin
T1 sequence (Q15858 whole entry): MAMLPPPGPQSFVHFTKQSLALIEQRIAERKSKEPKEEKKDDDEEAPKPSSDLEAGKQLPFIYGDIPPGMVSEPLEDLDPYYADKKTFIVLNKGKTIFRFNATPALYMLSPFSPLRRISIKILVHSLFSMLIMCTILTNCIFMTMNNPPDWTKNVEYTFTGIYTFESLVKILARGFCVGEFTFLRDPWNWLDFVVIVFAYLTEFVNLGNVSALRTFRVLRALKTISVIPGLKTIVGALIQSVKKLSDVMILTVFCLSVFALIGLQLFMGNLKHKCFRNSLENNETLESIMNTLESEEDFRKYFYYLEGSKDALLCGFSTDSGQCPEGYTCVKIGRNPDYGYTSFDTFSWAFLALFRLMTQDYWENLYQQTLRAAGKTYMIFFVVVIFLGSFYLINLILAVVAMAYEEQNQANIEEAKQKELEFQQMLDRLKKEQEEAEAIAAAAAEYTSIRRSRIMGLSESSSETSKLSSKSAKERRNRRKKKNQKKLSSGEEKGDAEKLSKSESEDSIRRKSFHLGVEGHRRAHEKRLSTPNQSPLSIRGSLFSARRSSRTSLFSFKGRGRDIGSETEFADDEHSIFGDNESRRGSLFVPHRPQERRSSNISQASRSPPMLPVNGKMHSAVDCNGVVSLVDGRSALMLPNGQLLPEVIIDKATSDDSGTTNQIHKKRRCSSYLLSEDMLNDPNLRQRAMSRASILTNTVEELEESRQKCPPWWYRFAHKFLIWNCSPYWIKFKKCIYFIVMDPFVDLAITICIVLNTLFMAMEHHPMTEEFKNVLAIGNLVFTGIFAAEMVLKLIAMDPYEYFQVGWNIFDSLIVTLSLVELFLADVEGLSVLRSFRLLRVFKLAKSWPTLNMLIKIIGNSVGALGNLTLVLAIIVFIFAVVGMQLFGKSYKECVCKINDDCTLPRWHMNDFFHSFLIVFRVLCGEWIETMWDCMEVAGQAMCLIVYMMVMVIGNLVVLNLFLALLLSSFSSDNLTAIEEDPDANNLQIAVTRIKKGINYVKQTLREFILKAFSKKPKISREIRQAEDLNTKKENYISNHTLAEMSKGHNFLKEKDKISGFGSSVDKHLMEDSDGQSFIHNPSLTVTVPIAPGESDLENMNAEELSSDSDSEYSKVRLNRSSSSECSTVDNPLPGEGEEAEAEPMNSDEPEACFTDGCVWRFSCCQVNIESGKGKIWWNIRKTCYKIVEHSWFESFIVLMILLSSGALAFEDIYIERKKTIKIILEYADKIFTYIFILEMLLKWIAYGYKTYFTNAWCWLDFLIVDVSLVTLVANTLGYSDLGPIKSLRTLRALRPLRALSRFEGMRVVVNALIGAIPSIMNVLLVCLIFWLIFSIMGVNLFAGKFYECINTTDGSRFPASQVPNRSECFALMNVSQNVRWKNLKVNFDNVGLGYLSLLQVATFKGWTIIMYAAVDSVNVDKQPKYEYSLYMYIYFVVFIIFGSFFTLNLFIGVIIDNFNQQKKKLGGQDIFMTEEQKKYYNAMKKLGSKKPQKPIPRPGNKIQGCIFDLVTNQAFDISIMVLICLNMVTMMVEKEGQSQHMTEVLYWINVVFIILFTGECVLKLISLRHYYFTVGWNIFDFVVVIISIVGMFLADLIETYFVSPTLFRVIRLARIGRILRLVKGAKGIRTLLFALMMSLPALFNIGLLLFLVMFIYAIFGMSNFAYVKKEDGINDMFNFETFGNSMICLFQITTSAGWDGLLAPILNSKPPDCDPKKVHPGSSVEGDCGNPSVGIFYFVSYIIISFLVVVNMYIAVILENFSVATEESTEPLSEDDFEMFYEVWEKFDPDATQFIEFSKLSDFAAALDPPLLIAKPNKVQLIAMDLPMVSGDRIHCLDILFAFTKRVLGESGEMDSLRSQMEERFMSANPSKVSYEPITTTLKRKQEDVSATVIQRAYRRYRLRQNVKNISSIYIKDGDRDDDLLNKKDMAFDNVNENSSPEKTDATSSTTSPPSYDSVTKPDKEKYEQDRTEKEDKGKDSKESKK
Procedure: NaV1.7 was expressed in HEK293 cells upon induction with tetracycline. Cells were cultured in DMEM containing 10% dialyzed Fetal Bovine Serum (VWR, Radnor, Pa.), 1% Glutamax (VWR, Radnor, Pa.), 1% Penicillin-Streptomycin (VWR, Radnor, Pa.), 100 mg/L Hygromycin (Thermo Fisher Scientific, Waltham, Mass. and 5 mg/L Blasticidin (Alfa Aesar, Haverhill, Mass.). Cells were grown and maintained at 37° C. in a humidified environment containing 10% CO2 in air. Cells were detached from the culture flask for passage and harvested using 0.05% Trypsin-EDTA (Thermo Fisher Scientific, Waltham, Mass.). To induce NaV1.7, cells were induced with tetracycline (0.1-1 μg/mL, IBI Scientific, Peosta, Iowa) the day before recording.
Before experiments, cells were washed with DPBS (VWR, Radnor, Pa.), digested with Detachin (VWR Radnor, Pa.) and then triturated 10 times in CHO Serum-Free Media (VWR Radnor, Pa.) to resuspend the cells and to break apart cell aggregates. Cells were counted and the final concentration was set at 2-5 million cells per mL.
The intracellular solution contained the following: 140 mM CsF, 1 mM/5 mM EGTA/CsOH, 10 mM HEPES, 10 mM NaCl, adjusted to pH 7.3 with CsOH, and osmolality to 320 with sucrose. The external solution contained the following: 145 mM NaCl, 4 mM KCl, 1 mM MgCl2, 2 mM CaCl2, 10 mM HEPES, 10 mM Glucose, adjusted to pH 7.4 with CsOH and osmolality to 305 with sucrose. All chemicals are from Sigma-Aldrich, St. Louis, Mo. In order to test the degree of internal block by test compounds, the compounds were dissolved in internal solution at the indicated test concentration. […] In order to test the degree of external block by test compounds the compounds were dissolved in external solution at the indicated test concentration.
Automated Patch Clamps were performed on Qube 384 (Sophion Bioscience, Woburn Mass.) with multihole Qchips at a temperature setting of 22 degrees. The whole cells configuration was formed with default Qube seal and break-in parameter. The membrane potential was held at −100 mV before the voltage protocol began. Two voltage protocols were followed.
Step 1: Cells were held at −100 mV with a depolarized pulse to −20 mV for 10 ms, the interval was set at 5 s. Currents were corrected by default leak subtraction from every pulse. The duration was set at 5 mins.
Step 2: Cells were held at −100 mV with a depolarized pulse to −20 mV for 10 ms. The frequency was 5 Hz. Currents were corrected by leak subtraction calculated before step 2. The duration was set at 4 mins.
After Step 2, the external solution was changed with solutions containing test compounds. Qchips were held at −100 mV without pulsing. The total solution switching time was 8 minutes. After the external solution exchange, cells were recorded using the same procedure as step 2 for 10 minutes.
Data analysis was performed by Sophion Analyzer. Data were corrected with control cells (Non-Drug). The IC50 data were plotted with DR-plots/Hill function (a dose-response plot with a Hill fit).

[2] = PAMPA membrane permeability assay; assay type: in vitro ADME; conditions: PAMPA permeability coefficient, GIT lipid, buffer pH 7.4, 4 hours incubation
Summary of the method: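 Passive permeability across GIT lipid-coated artificial membrane; compounds at 50 μM in pH 7.4 buffer in donor wells, incubated 4 h. Donor, acceptor and reference concentrations read by UV spectroscopy, permeability coefficient calculated from spectral AUCs.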

| IC50 [1] | PAMPA (10^−6 cm/s) [2] | Structure (SMILES) |
| --- | --- | --- |
| > 100 µM | + (<0.1 10^−6 cm/s) | CCOC(=O)Cn1cc(C)c[n+]1CC(=O)Nc1c(C)cccc1C [Compound 76] |
| < 10 µM | ++ (0.1-2.0 10^−6 cm/s) | Cc1cccc(C)c1NC(=O)C[n+]1cccc(Cc2ccccc2)c1 [Compound 34] |
| 10 to 30 µM | + (<0.1 10^−6 cm/s) | Cc1cccc(C)c1NC(=O)C[n+]1cccc(S(C)(=O)=O)c1 [Compound 46] |
| > 100 µM | + (<0.1 10^−6 cm/s) | CCn1c(C)cc[n+]1CC(=O)Nc1c(C)cccc1C [Compound 104] |
| > 100 µM | + (<0.1 10^−6 cm/s) | Cc1cccc(C)c1NC(=O)C[n+]1cccn1C1CCCC1 [Compound 71] |
| 30 to 100 µM | ++ (0.1-2.0 10^−6 cm/s) | Cc1cccc(C)c1NC(=O)C[n+]1cc2ccccc2n1C [Compound 54] |
| > 100 µM | + (<0.1 10^−6 cm/s) | COc1cc(OC)c[n+](CC(=O)Nc2c(C)cccc2C)c1 [Compound 98] |
| > 100 µM | + (<0.1 10^−6 cm/s) | CCOC(=O)CCCn1ccc[n+]1CC(=O)Nc1c(C)cccc1C [Compound 75] |
| 30 to 100 µM | + (<0.1 10^−6 cm/s) | Cc1cccc(C)c1NC(=O)C[n+]1c(C)cc(C)n1C [Compound 94] |
| > 100 µM | + (<0.1 10^−6 cm/s) | Cc1cccc(C)c1NC(=O)C[n+]1cccn1CC#N [Compound 69] |
| 30 to 100 µM | ++ (0.1-2.0 10^−6 cm/s) | Cc1cccc(C)c1NC(=O)C[n+]1cccc(C(F)(F)F)c1 [Compound 66] |
| 30 to 100 µM and > 100 µM | + (<0.1 10^−6 cm/s) | CCNc1ccc[n+](CC(=O)Nc2c(C)cccc2C)c1 [Compound 50] |
| > 100 µM | ++ (0.1-2.0 10^−6 cm/s) | Cc1cccc(C)c1NC(=O)C[n+]1cccc(N2CCCC2)c1 [Compound 51] |
| > 100 µM | + (<0.1 10^−6 cm/s) | CCCn1ccc(C)[n+]1CC(=O)Nc1c(C)cccc1C [Compound 101] |
| 30 to 100 µM | + (<0.1 10^−6 cm/s) | Cc1cccc(C)c1NC(=O)C[n+]1cc(OCc2ccccc2)ccc1Cl [Compound 103] |
| > 100 µM | + (<0.1 10^−6 cm/s) | Cc1cccc(C)c1NC(=O)C(Cc1ccccc1)[n+]1ccccc1 (stereo not drawn) [Compound 106] |
| 10 to 30 µM | + (<0.1 10^−6 cm/s) | Cc1cccc(C)c1NC(=O)C[n+]1cccc(S(=O)(=O)N(C)C)c1 [Compound 47] |
| 10 to 30 µM | + (<0.1 10^−6 cm/s) | Cc1cccc(C)c1NC(=O)C[n+]1cc(F)cc(-c2ccccc2)c1 [Compound 77] |
| > 100 µM | ++ (0.1-2.0 10^−6 cm/s) | Cc1cccc(C)c1NC(=O)C(CC(C)C)[n+]1ccccc1 (stereo not drawn) [Compound 108] |
| > 100 µM | + (<0.1 10^−6 cm/s) | CCn1ccc(C)[n+]1CC(=O)Nc1c(C)cccc1C [Compound 95] |
| > 100 µM | + (<0.1 10^−6 cm/s) | Cc1cccc(C)c1NC(=O)C[n+]1cccn1CC1CC1 [Compound 73] |
| > 100 µM | + (<0.1 10^−6 cm/s) | COC(=O)c1c(F)c[n+](CC(=O)Nc2c(C)cccc2C)cc1F [Compound 89] |
| > 100 µM | + (<0.1 10^−6 cm/s) | CCOC(=O)c1cc(C)[n+](CC(=O)Nc2c(C)cccc2C)n1C [Compound 84] |
| > 100 µM | + (<0.1 10^−6 cm/s) | Cc1cccc(C)c1NC(=O)Cn1ccc[n+]1CC(=O)Nc1c(C)cccc1C [Compound 109] |
| > 100 µM | + (<0.1 10^−6 cm/s) | CCCCn1ccc[n+]1CC(=O)Nc1c(C)cccc1C [Compound 83] |
| > 100 µM | ++ (0.1-2.0 10^−6 cm/s) | CNC(=O)Cc1ccc[n+](CC(=O)Nc2c(C)cccc2C)c1 [Compound 33] |
| > 100 µM | + (<0.1 10^−6 cm/s) | CCCn1c(C)cc[n+]1CC(=O)Nc1c(C)cccc1C [Compound 81] |

From US10934263B2, “Charged ion channel blockers and methods for use” (Nocion Therapeutics, Inc., priority 2019, dated 2021)
